Measured values reported in paper PMC11508334, “In Vitro Evaluation of New 5-Nitroindazolin-3-one Derivatives as Promising Agents against Trypanosoma cruzi” (International Journal of Molecular Sciences, 2024).

Columns and labels:
Dm28c trypomastigotes [1] = assay: Trypomastigote viability study (MTT); type: cell-based, Trypanosoma cruzi
Method: Vero cells (ATCC CCL-81) were infected with Dm28c trypomastigotes at a 1:3 (cell: parasite) ratio. T. cruzi trypomastigotes were initially obtained from primary cultures of peritoneal macrophage from chagasic mice. […] Vero cell cultures were then infected with trypomastigotes and incubated at 37 °C in humidified air and 5% CO2 for 5–7 days. After that time, the culture medium was collected and centrifuged at 500× g for 5 min. The trypomastigote-containing pellet was re-suspended in RPMI 1640 supplemented with inactivated FBS and penicillin–streptomycin at a final 1 × 10^7 parasites/mL density. Trypomastigote viability assays were performed using the MTT reduction method as described previously. Then, 1 × 10^7 parasites/mL was incubated in RPMI 1640 with inactivated FBS at 37 °C for 24 h with or without the studied compounds.

[2] = Cyclic voltammetry, reduction of nitro group; type: physicochemical
Method: Cyclic Voltammetry (CV) was carried out using a Metrohm Autolab instrument model PGSTAT204, using dimethyl sulfoxide (DMSO) as the solvent (1 mM solutions), tetrabutylammonium perchlorate (0.1 M TBAP) as the supporting electrolyte, a hanging drop mercury electrode (HDME) as the working electrode, Ag/AgCl (3M KCl) as the reference electrode, and a graphite rod as the counter electrode. All measurements were performed after bubbling with nitrogen (N2) for 10 min.
Using Nicholson’s procedure, the Ipa/Ipc values (RNO2/RNO2^•−) were measured from each cyclic voltammogram with a scan rate between 0.1 and 2.5 V/s.

[3] = tested on: Dm28c trypomastigote of T. cruzi; assay: Mitochondrial membrane potential (TMRM incorporation); type: cell-based, Trypanosoma cruzi; conditions: trypomastigotes, compound at IC50, 3 h; compared to negative control
Method: Mitochondrial membrane potential (ψm) was determined by the incorporation of the fluorescent probe tetramethylrhodamine methyl ester (TMRM). […] Then, carbonylcyanide-m-chlorophenylhydrazone (CCCP, 10 µM) was added as a control and incubated at 37 °C in humidified air and 5% CO2 for 3 h. Parasites were washed with phosphate-buffered saline (pH 7.4), and suspensions were incubated with TMRM (50 nM) for 15 min. Fluorescence measurements determined the incorporation of the probe at an excitation wavelength of 550 nm and an emission of 590 nm. All the assays were performed in darkness.

Dm28c trypomastigotes [4] = assay: Intracellular ROS generation (DCFH2-DA); type: cell-based, Trypanosoma cruzi; conditions: compound at IC50, 40 min
Method: ROS detection was performed using the 2′, 7′-dichlorodihydrofluorescein diacetate (DCFH2-DA) method. For Dm28c trypomastigotes, 96-well plates were seeded with 10 × 10^6 trypomastigotes/mL in RPMI medium without phenol red and supplemented with 5% SFBi. Cultures were incubated with a 20 μM DCFH2-DA solution for 15 min at 37 °C. Then, they were centrifuged at 6000 rpm and washed 2 times with phosphate-buffered saline at pH 7.4. The DCFH2-DA-loaded trypomastigotes were then transferred to a Nunc® fluorescence 96-well plate. […] The area under fluorescence increase over time curves were determined using Origin 8 software 9.2, with areas normalized to control. Results are the means ± SD of three independent experiments.

[5] = tested on: trypomastigote form of T. cruzi; assay: Analysis of ATP levels (CellTiter-Glo); type: cell-based, Trypanosoma cruzi; conditions: trypomastigotes; relative to negative control
Method: The CellTiter-Glo® Luminescent Cell Viability Assay (Promega, Fitchburg, WI, USA) was used to detect variations in ATP levels. After incubation, treated parasites were centrifuged (6000 rpm, 10 min, 4 °C) and treated according to the manufacturer’s instructions. Luminescence was determined using the Varioskan™ LUX multi-mode microplate reader (ThermoFisher Scientific). Results were expressed as a percentage relative to the negative control without treatment. Sodium azide (20 mM NaN3 for 3 h) was added as a positive control and benznidazole as a reference treatment. (1) %relative control=luminescence sample/luminescence control∗100

[6] = tested on: trypomastigotes of T. cruzi; assay: Plasmatic membrane permeability assay (SYTOX Green) on trypomastigotes; type: cell-based, Trypanosoma cruzi; conditions: compound at IC50, 1 h
Method: Late growth-phase trypomastigotes of T. cruzi (3 × 10^6/well) were washed and incubated in the dark with 1 μM SYTOX Green probe (Molecular Probes) in HANKS′ balanced salts solution (HBSS; Sigma-Aldrich) supplemented with 10 mM D-glucose (HBSS + Glu). The test compound was added at IC50, and fluorescence was measured after 1 h of treatment. The maximum permeabilization was obtained with 0.5% Triton X-100. Fluorescence intensity was determined using Varioskan™ LUX multimode microplate reader (ThermoFisher Scientific, Waltham, MA, USA), with excitation and emission wavelengths of 485 and 520 nm, respectively. The following internal controls were used in the evaluation: (i) the background fluorescence of the compound at the respective wavelengths and (ii) the possible interference of DMSO. Samples were tested in triplicate.

[7] = tested on: trypomastigote form of T. cruzi (Dm28c strain); assay: ESR spin trapping with DMPO in parasite media; type: cell-based, Trypanosoma cruzi; conditions: trypomastigotes, NADPH, aerobic conditions
Method: The free radical production capacity of the new complexes was assessed in the parasite by ESR using 5,5- dimethyl-1-pirroline-N-oxide (DMPO) for spin trapping. Each tested compound was dissolved in DMSO (spectroscopy grade) (ca. 1 mM) and the solution was added to a mixture containing the trypomastigote form of T. cruzi (Dm28c strain, final protein concentration 4–8 mg/mL) and DMPO (final concentration 250 mM). The mixture was transferred to a 50 μL capillary. ESR spectra were recorded in the X band (9.85 GHz) using a Bruker ECS 106 spectrometer with a rectangular cavity and 50 KHz field modulation. All the spectra were registered in the same scale after 15 scans.

RAW 264.7 cells = assay: Cytotoxicity MTT assay on RAW 264.7 cells; type: cell-based; conditions: in vitro cytotoxicity, murine RAW 264.7 macrophages
Method: The compounds under study, dissolved in dimethylsulfoxide (DMSO), were added to the culture media at 10–200 μM. RAW 264.7 cells were cultured in 96-well plates (5 × 10^4 cells per well), and 100 μL of 0.5 mg/mL MTT was added to each well. The DMSO final concentration was less than 0.1% v/v. After incubation for 4 h at 37 °C, the generated water-insoluble formazan dye was dissolved by adding 100 μL of 10% w/v sodium dodecyl sulfate (SDS) in 0.01 M HCl. The plates were further incubated overnight at 37 °C; […] 0.5% of Triton X-100 was added as a positive control. The plates were further incubated overnight at 37 °C, and the optical density of the wells was determined using a microplate reader (Asys Expert Plus©, Asys Hitachi, Vienna, Austria) at 570 nm. Under these conditions, the optical density is directly proportional to the viable cell number in each well. All experiments were performed at least thrice and data were reported as means and their standard deviations from triplicate cultures. Results are reported as IC50 regarding the control (uninfected cells in culture medium)

[8] = tested on: T. cruzi epimastigote stage (Dm28c strain); assay: Epimastigotes viability study (MTT); type: cell-based, Trypanosoma cruzi
Method: The trypanocidal activity was evaluated against the T. cruzi epimastigote stage (Dm28c strain). It was measured through the MTT assay using 0.22 mg/mL phenazine methosulfate (as an electron carrier). T. cruzi epimastigote from the author's collection (Programa de Farmacología Molecular y Clínica, Facultad de Medicina, Universidad de Chile, Santiago, Chile) were grown at 28 °C in liver infusion tryptase (LIT) medium, as reported earlier, but replacing blood with 4 μM hemin. […] fetal bovine serum (FBS) was added to a final concentration of 10% v/v. In this colorimetric assay for testing the trypanocidal activity, the compounds were dissolved in DMSO. They were added to 3 × 10^6 parasites/mL at 100 μM final concentrations in RPMI 1640 culture medium without phenol red for 24 h at 28 °C. The final concentration of DMSO was less than 0.1% v/v. […] The MTT assay, which was described previously, determined the viability of the epimastigotes.

O=c1c2cc([N+](=O)[O-])ccc2[nH]n1Cc1ccccn1 [Compound 5a, 5-nitro-2-picolyl-indazolin-3-one]
SI Trypomastigote (Dm28c trypomastigotes [1]; Selectivity Index IC50 macrophages RAW 264.7/IC50 trypomastigotes Dm28c): 12.8 | IC50 (Dm28c trypomastigotes [1]; T. cruzi Dm28c trypomastigotes, 24 h, MTT): 5.4 ± 0.7 µM | −EpaIII ([2]; anodic peak potential of couple IIIc/IIIa, given with inverted sign, vs. Ag/AgCl electrode in DMSO): 1.32 V | −EpcIII ([2]; cathodic peak potential of couple IIIc/IIIa, given with inverted sign, vs. Ag/AgCl electrode in DMSO): 1.36 V | Ipa/Ipc ([2]; current ratio RNO2/RNO2•−, couple IIIc/IIIa, DMSO): 0.62 | −E1/2 ([2]; half-wave potential of couple IIIc/IIIa, given with inverted sign, vs. Ag/AgCl electrode in DMSO): 1.34 V | effect on mitochondrial membrane potential (ψm) [3]: statistically significant impact | intracellular ROS (DCF fluorescence intensity) (Dm28c trypomastigotes [4]): most significant increase in fluorescence intensity | ATP levels [5]: significantly reduced ATP levels | alteration of plasma membrane permeability (SYTOX Green incorporation) [6]: alter plasma membrane permeability | radical species detected by DMPO spin trapping [7]: generation of the hydroxyl radical | IC50 (RAW 264.7 cells): 68.9 ± 0.7 µM | SI Epimastigote ([8]; Selectivity Index IC50 macrophages RAW 264.7/IC50 epimastigotes Dm28c): 62.6 | IC50 ([8]; T. cruzi Dm28c epimastigotes, 24 h, MTT): 1.1 ± 0.3 µM
